In ChEMBL document CHEMBL1201862, “PubChem BioAssay data set” (2004) one finds AC50, EC50 and IC50 data, which are given here for 24 molecules.

As a reminder, the AC50 is the concentration giving half of the maximal activity seen.

Activity calls are given as the source filed them.

Assay [1] is described as follows: P. falciparum Dd2 growth inhibitors, dose response, SYBR Green, cherry-picked samples (AID 1159567). Format: functional, cell-based.
Assay [2] in a line: Luminescence Cell-Based Dose Response HTS to Identify Activators of Luciferase Translation or Activity in H4 […] Cells. [Related pubchem assays: 1829 (Project Summary), 1814 (Primary HTS)]. Format: functional.
A further assay concerns H4. In words: Luminescence Cell-Based Dose Response HTS to Identify Activators of 5'UTR Stem-Loop Driven Prion Protein mRNA Translation in H4 Neuroglioblastoma Cells. [Related pubchem assays: 1829 (Project Summary), 1814 (Primary HTS)]. It counts as functional. The following applies: Homo sapiens.
Assay [3] is described as follows: Luminescence Cell-Based Dose Confirmation HTS to Identify Activators of 5'UTR Stem-Loop Driven Alpha-Synuclein mRNA Translation in H4 Neuroglioblastoma Cells. [Related pubchem assays: 1829 (Project Summary), 1814 (Primary HTS)]. Format: functional.
Assay [4] has as its target T1, Heat shock factor protein 1 (Mus musculus, UniProt P38532).
T1 sequence (P38532 whole entry): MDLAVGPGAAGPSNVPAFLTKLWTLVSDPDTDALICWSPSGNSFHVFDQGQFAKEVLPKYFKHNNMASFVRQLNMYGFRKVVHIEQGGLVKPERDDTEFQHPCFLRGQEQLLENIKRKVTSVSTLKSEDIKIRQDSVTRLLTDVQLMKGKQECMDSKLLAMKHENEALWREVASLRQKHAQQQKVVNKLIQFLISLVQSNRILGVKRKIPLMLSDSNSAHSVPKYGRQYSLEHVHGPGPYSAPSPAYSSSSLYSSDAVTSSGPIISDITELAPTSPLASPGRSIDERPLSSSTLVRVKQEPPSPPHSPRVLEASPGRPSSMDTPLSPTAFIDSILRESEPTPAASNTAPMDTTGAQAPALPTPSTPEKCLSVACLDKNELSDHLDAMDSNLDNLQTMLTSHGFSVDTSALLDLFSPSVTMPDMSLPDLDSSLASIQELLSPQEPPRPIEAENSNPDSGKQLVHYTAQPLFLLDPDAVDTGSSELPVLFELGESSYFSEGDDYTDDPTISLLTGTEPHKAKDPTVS
In words: HSF1 potentiators in luciferase reporter cells, confirmation, cell-based, NIH3T3, luminescence, dose retest (AID 435004).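 Further: stress induced by proteasome inhibitor MG132 added 30 min after compound; luciferase reporter driven by HSF1 response element in NIH3T3 cells; actives raise luminescence as potentiators of the MG132 stress response.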 Format: functional. A general note: In a reporter assay the amount or activity of a reporter protein is the signal.

Assay [5] deals with T2, Calpain-2 catalytic subunit (Sus scrofa, UniProt P43367).
T2 sequence (P43367 whole entry): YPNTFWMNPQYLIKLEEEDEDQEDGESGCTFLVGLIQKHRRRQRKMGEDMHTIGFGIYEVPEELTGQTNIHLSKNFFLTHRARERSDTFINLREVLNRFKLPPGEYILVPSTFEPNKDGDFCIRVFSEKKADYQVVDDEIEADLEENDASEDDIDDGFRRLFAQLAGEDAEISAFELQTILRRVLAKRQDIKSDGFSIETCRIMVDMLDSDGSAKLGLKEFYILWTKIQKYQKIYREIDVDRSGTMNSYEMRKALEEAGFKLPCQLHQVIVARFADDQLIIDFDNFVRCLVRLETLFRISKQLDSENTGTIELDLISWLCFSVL
Briefly: pig calpain II inhibitor potency, dose response, biochemical, fluorogenic peptide substrate (AID 1420). Format: functional.

Assay [6] addresses T3, Carboxy-terminal domain RNA polymerase II polypeptide A small phosphatase 1 (Homo sapiens, UniProt Q9GZU7).
T3 sequence (Q9GZU7 whole entry): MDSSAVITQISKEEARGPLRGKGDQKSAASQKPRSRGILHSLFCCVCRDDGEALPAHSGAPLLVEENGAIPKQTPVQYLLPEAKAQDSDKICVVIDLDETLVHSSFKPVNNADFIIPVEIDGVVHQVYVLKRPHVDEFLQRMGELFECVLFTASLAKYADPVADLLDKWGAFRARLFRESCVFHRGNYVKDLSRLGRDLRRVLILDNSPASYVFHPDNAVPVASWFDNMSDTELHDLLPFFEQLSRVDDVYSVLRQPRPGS
In words: inhibitors of CTDSP1, concentration-response testing, biochemical assay, absorbance-based, actives from ultra-high-throughput screening (AID 540297). It counts as functional.

For assay [7], the target named is T4, Fatty acid synthase (Homo sapiens, UniProt P49327). Briefly: FAS thioesterase domain inhibitors, dose response, biochemical, endpoint fluorescence intensity, uHTS hits (AID 624327).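 Further: fluorescence from hydrolysis of an O-methyl fluorescein acyl ester substrate by the enzyme.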 Format: functional.
T4 sequence (P49327 whole entry, the tested form may be a part): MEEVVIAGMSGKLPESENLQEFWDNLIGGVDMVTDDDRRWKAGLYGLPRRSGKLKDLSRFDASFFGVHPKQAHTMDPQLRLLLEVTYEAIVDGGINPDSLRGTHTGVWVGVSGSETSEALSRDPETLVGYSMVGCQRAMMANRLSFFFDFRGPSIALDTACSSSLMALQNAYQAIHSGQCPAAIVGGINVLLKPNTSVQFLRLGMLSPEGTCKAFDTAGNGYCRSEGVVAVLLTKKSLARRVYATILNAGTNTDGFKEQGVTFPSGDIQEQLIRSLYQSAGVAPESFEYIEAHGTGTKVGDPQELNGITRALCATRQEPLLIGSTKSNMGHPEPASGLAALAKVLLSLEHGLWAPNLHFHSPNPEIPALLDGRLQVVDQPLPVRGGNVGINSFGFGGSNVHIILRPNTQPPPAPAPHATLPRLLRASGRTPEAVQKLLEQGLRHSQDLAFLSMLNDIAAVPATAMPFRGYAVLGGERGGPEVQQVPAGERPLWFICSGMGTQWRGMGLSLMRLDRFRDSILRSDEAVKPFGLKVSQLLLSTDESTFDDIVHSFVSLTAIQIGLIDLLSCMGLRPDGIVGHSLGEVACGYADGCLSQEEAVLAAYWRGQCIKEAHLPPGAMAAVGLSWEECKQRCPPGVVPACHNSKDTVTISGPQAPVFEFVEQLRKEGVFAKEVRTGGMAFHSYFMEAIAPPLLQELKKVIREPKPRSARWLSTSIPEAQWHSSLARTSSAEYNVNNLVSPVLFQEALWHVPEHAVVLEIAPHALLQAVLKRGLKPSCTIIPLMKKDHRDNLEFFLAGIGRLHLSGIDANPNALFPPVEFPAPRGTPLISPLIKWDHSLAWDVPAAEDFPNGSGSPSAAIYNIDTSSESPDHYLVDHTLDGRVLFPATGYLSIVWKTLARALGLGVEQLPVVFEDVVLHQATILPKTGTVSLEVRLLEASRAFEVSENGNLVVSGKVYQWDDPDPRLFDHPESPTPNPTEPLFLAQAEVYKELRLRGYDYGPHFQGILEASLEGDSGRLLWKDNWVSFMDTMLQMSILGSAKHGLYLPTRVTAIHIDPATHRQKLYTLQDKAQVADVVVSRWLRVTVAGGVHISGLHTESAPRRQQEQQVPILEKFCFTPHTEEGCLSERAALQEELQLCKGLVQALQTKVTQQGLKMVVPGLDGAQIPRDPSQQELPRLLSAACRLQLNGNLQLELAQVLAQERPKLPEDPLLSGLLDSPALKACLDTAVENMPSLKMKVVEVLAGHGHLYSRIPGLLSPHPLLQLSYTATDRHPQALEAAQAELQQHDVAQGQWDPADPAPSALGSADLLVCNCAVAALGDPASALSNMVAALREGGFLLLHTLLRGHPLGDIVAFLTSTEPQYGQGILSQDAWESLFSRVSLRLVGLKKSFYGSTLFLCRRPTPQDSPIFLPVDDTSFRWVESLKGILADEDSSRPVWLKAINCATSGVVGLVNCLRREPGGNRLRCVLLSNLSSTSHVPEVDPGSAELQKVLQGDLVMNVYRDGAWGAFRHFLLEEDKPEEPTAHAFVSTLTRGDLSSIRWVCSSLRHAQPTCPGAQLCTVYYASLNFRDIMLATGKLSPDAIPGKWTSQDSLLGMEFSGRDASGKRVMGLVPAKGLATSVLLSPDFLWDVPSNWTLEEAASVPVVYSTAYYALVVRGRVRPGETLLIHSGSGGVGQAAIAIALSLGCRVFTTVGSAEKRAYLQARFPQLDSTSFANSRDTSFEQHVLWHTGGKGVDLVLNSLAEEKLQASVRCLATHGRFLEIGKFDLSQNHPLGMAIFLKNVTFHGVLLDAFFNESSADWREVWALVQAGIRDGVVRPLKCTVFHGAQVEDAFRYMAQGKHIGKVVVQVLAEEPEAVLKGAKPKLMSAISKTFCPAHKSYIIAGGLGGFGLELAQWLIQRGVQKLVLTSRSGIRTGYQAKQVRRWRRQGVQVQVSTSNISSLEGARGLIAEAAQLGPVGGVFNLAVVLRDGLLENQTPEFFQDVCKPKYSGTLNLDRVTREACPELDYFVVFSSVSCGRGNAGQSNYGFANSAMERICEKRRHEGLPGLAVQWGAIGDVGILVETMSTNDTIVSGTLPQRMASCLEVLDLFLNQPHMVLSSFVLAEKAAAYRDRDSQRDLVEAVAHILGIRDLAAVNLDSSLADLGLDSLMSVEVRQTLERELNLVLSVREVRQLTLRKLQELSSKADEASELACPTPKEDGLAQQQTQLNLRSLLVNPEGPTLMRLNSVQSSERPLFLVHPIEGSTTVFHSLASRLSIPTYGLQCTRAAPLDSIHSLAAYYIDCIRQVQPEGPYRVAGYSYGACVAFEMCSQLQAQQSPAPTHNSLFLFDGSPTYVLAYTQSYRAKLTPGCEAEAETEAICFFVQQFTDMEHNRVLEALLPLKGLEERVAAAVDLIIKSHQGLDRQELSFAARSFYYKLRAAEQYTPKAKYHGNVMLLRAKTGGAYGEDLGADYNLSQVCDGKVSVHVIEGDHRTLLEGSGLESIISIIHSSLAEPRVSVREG
Assay [8] addresses T4, Fatty acid synthase. In words: FAS thioesterase domain inhibitors, dose response, biochemical, kinetic fluorescence intensity (AID 624326).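 Further: rate of fluorescence rise from hydrolysis of a fluorogenic O-methyl fluorescein ester substrate.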 Format: functional.
A further assay has as its target Genome polyprotein (dengue virus type 2, UniProt P29990). Briefly: Dengue-2 NS5 methyltransferase inhibitors, primary screen, biochemical, confirmation dose response (AID 588689). Format: functional.
Assay [9] is described as follows: Luminescence Cell-Based Dose Confirmation HTS to Identify Inhibitors of Platelet Dense Granule Release. [Related pubchem assays: 1663 (Primary HTS), 1678 (Summary of Project)]. It counts as functional.
Assay [10] concerns the target Luciferin 4-monooxygenase (Photinus pyralis, UniProt P08659). In words: firefly luciferase enzyme inhibitors, dose response, biochemical, luminescence (AID 1891).
A further assay concerns the target Cytochrome P450 2C19 (Homo sapiens, UniProt P33261). Briefly: Cytochrome panel assay with activity outcomes. Panel member name: p450-cyp2c19 Compounds with AC50 equal or less than 10 uM are considered active. It counts as functional. As to conditions: read-out: AC50.
For another assay, the target named is Cytochrome P450 3A4 (Homo sapiens, UniProt P08684).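 Further: CYP3A4 tested as one member of a cytochrome P450 panel screen.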
Sequence of Cytochrome P450 3A4 (P08684 whole entry): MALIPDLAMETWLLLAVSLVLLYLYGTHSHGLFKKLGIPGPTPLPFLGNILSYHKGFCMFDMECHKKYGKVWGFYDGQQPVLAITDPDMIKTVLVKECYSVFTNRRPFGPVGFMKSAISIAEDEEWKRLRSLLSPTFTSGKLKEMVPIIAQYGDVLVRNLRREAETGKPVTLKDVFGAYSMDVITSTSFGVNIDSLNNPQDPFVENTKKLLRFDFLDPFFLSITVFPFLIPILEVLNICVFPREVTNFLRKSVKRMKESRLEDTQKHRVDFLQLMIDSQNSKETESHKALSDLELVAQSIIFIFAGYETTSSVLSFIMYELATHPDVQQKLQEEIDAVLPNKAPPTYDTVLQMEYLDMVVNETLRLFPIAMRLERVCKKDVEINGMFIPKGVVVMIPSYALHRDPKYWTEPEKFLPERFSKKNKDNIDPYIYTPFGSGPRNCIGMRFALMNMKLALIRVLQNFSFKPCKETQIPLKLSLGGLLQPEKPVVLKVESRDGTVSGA
Assay [11] concerns the target T5, Corticotropin-releasing factor receptor 2/Corticotropin-releasing factor-binding protein (Homo sapiens, UniProt P24387+Q13324).
T5 sequence (Q13324 whole entry): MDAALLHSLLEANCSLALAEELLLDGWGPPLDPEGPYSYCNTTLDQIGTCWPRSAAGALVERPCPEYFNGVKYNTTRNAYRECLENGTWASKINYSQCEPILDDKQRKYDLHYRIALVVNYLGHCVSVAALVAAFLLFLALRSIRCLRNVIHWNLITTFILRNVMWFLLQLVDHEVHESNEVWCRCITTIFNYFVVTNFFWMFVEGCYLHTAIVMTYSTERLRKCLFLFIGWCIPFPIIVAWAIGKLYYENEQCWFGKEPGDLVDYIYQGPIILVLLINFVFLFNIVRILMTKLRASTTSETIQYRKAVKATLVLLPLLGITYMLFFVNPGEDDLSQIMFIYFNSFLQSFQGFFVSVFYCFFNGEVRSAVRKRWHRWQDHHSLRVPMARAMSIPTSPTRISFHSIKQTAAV
T5 sequence (P24387 whole entry): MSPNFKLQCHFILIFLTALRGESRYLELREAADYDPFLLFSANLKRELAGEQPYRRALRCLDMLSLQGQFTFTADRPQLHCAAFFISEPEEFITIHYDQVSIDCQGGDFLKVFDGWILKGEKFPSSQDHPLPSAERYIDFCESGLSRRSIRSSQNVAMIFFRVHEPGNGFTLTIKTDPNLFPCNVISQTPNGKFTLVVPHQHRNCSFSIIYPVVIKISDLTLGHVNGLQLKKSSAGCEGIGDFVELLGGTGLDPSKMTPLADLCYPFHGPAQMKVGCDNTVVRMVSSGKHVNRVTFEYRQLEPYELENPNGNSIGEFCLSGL
Briefly: Dose Response confirmation of uHTS hits for small molecule antagonists of the CRF-binding protein and CRF-R2 receptor complex. As to conditions: read-out: IC50_Mean. It counts as functional.

Assay [12] concerns the target T5, Corticotropin-releasing factor receptor 2/Corticotropin-releasing factor-binding protein. Briefly: activators of CRF receptor 2 with binding protein – uHTS hits, confirmation (AID 602473). As to conditions: read-out: EC50_Mean. Format: functional.
The next assay concerns the target Large T antigen (Simian virus 40, UniProt P03070). Format: functional, Betapolyomavirus macacae.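 Further: Confirmatory-stage PubChem screen for compounds that inhibit SV40 T antigen.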

Sequence of Genome polyprotein (P29990 2492-3391 limits assumed): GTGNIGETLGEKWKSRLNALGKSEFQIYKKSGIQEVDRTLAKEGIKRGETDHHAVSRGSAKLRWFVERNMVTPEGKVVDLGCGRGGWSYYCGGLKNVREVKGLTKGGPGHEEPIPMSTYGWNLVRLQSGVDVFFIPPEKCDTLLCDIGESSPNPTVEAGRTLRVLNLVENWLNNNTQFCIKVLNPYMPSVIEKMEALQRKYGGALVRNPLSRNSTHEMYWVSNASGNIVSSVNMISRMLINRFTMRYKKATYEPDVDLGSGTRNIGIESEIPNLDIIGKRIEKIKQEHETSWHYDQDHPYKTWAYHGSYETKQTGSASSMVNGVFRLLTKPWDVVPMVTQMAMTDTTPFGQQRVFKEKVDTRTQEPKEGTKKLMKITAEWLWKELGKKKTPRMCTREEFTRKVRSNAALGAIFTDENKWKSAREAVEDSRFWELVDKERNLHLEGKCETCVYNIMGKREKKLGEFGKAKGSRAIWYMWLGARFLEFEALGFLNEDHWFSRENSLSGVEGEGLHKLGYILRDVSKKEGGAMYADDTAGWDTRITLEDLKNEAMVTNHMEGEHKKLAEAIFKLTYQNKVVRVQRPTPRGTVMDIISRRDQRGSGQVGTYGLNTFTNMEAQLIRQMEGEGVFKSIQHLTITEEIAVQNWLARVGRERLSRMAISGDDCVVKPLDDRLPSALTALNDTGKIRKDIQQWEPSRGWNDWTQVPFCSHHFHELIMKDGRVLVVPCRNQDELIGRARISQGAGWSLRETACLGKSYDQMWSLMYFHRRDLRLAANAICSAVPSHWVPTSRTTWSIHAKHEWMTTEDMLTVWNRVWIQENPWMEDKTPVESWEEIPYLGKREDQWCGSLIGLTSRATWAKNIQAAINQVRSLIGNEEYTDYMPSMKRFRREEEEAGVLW
Sequence of Large T antigen (P03070 whole entry): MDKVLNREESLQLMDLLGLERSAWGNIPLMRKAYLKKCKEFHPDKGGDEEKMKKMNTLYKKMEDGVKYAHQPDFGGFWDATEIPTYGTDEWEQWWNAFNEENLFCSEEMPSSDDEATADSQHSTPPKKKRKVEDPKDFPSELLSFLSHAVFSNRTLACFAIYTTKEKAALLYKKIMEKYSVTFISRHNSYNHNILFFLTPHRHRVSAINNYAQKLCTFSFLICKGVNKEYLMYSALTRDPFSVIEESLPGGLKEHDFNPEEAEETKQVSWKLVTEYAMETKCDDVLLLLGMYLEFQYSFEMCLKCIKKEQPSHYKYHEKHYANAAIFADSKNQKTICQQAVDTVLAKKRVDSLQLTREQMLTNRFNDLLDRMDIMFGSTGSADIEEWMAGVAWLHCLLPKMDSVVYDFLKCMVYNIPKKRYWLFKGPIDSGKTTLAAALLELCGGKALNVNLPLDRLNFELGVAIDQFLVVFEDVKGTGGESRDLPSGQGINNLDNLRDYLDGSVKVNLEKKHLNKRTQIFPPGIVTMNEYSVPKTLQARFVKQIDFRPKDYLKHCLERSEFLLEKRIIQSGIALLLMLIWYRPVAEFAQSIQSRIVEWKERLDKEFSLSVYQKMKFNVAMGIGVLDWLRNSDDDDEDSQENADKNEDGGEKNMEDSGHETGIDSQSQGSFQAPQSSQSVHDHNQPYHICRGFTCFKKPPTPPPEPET
Sequence of Cytochrome P450 2C19 (P33261 whole entry): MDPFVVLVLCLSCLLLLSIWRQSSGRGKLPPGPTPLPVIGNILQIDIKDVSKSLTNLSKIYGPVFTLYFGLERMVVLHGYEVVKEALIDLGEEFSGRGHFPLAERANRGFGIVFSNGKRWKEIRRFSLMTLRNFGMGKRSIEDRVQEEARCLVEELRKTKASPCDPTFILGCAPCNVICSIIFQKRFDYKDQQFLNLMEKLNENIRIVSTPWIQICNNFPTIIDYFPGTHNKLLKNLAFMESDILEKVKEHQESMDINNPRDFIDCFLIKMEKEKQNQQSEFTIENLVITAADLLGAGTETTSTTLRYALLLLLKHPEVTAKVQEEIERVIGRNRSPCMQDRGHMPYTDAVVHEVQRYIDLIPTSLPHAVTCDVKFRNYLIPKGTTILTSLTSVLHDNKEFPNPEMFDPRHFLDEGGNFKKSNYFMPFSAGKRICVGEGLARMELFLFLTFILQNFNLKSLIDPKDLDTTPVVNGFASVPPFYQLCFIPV

`COc1ccc(CN2CC3(CN(C(=O)Cc4ccccc4)C3)c3c([nH]c4cc(OC)ccc34)[C@H]2CO)cc1`: the AC50 in assay [1] was 6.52 µM (active).
For the molecule `O=[N+]([O-])c1ccc(-c2c[nH]c(SCc3ccccc3Cl)n2)cc1`, the EC50 in assay [2] is 18.9 µM (active); in the assay on H4 it was 17.5 µM (active); in assay [3] it was > 120 µM (not active).
Regarding `CC(C)=C1C2CCC1C1C(=O)N(c3nc(-c4ccccc4)c(C)s3)C(=O)C21` (centres undefined), the EC50 in assay [4] is > 260 µM (inactive). In addition, in assay [5], the IC50 is recorded as 8.52 µM (not active).
As for `O=C1/C(=C/Nc2cccc(O)c2)c2ccccc2C(=O)N1c1ccc2c(c1)OCO2`, the EC50 (in assay [2]; in the assay on H4; in [3]) was > 120 µM (not active) throughout.
As to `O=C(CSc1nnnn1-c1ccc(Cl)cc1)NC(=O)Nc1ccc2c(c1)OCCO2`, the EC50 was 45.7 µM (active) in assay [2], 10.1 µM (active) with H4 and > 120 µM (not active) in assay [3].
Take `C=CCNc1nc(C(=O)OCC(=O)c2cccc(Br)c2)cs1`: the IC50 in [6] is 4 µM (active).
Consider `N#C/C(=C\c1c(N2CCC(C(N)=O)CC2)nc2ccccn2c1=O)S(=O)(=O)c1ccc(Cl)cc1`, for which the IC50 on Fatty acid synthase [7] is 17.1 µM (active); at Fatty acid synthase [8], 6.07 µM (active).
For the molecule `CCCNC(=O)N1CCC2(CC1)CN(Cc1ccc(F)cc1)[C@@H](CO)c1[nH]c3cc(OC)ccc3c12`, the AC50 in assay [1] is 5.11 µM (active).
On to `C[C@@H]1CC=C[C@@H]2[C@H]1C(=O)N(Cc1ccccc1)[C@H]2c1cccc(C#Cc2ccccc2)c1`, for which the IC50 in assay [6] is 20 µM (active).
Take `COc1cccc(/C=C2\Oc3cc(OCC(=O)N4Cc5ccccc5C[C@H]4C(=O)O)ccc3C2=O)c1`: on Genome polyprotein, the IC50 was 43.4 µM (active).
As for `C[N+]1(C)CCc2cc3c(cc2[C@H]1[C@@H]1OC(=O)c2c1ccc1c2OCO1)OCO3`, the IC50 in assay [6] was 3.48 µM (active).
For the molecule `Cc1nc2nc(-c3cccs3)cn2nc1C`, the IC50 on Genome polyprotein was 17.6 µM (active).
As to `Cc1ccc(-c2n[nH]c(Cc3ccccc3)n2)cc1`, the EC50 was 2.44 µM (active) in assay [2], 60.8 µM (active) in the assay on H4 and 0.105 µM (active) in assay [3].
Turning to `O=C(CN1C(=O)NC2(CCCCCC2)C1=O)Nc1ccc(Cl)c([N+](=O)[O-])c1`, the IC50 on Fatty acid synthase [7] was 8.92 µM (active); on Fatty acid synthase [8], 5.92 µM (active).
The matching figures for `CCS(=O)(=O)c1ccc(-c2csc(-c3ccccc3)n2)c(Cl)c1Cl`: 1.21 µM (active) and 0.907 µM (active).
With `Cc1nc2sc(C(=O)c3ccccc3)c(N)c2c2c1CCCC2`, the EC50 in assay [2] was 6.25 µM (active); in assay [9], > 112 µM (not active); in the assay on H4, 10.5 µM (active); in [3], > 120 µM (not active); in assay [10], > 112 µM (not active).
For the molecule `COc1ccc([N+](=O)[O-])cc1NC(=O)C(C)NNC(=O)c1cccc([N+](=O)[O-])c1` (centres undefined), the IC50 on Fatty acid synthase [7] was 12.7 µM (active); on Fatty acid synthase [8] it was 10.7 µM (active).
Consider `COc1ccccc1/C=C(\NC(=O)c1ccc(OC)c(OC)c1)C(=O)Nc1cccc([N+](=O)[O-])c1`, for which the IC50 on Fatty acid synthase [7] is 11.9 µM (active); on Fatty acid synthase [8], 16 µM (active).
With `COc1ccc(OC)c(S(=O)(=O)ON2C(=O)c3ccccc3C2=O)c1`, the EC50 (in assay [2]; with H4; in [3]) was > 120 µM (not active) in each case. Also, the IC50 on Fatty acid synthase [7] was 3.72 µM (active); at Fatty acid synthase [8], 3.19 µM (active).
For `O=C(CCN1C(=O)/C(=C/c2ccc(Cl)cc2)SC1=S)Nc1cccc(C(=O)O)c1`, the IC50 in assay [6] was 4.43 µM (active).
On to `CCc1ccc(NC(=O)C[S+]([O-])CC(=O)NCCCc2ccccc2)cc1` (centres undefined), for which the AC50 was 11.2 µM (inconclusive) at Cytochrome P450 2C19 and 2.82 µM (inconclusive) at Cytochrome P450 3A4. Also, the IC50 in [6] is 7.62 µM (active).
As to `CCCC12CN(C(=O)c3ccc([N+](=O)[O-])cc3)CC(C)(CN(C(=O)c3ccc([N+](=O)[O-])cc3)C1)C2=O`, the IC50 is > 47.1 µM (inactive) in assay [11], 9.85 µM (active) at Fatty acid synthase [7] and 12.9 µM (active) at Fatty acid synthase [8]. For the same molecule, the EC50 in assay [12] was > 53 µM (inactive).
As for `O=C(CS(=O)(=O)c1ccccc1)c1cc2cc(F)ccc2oc1=O`, the IC50 at Large T antigen was 62.8 µM (active); at Genome polyprotein, > 100 µM (active). In addition, the EC50 in assay [4] was > 260 µM (inactive).
For `C=CCn1c(=S)[nH]c2cc(C(=O)N3CCN(c4ccccc4OC)CC3)ccc2c1=O`, the IC50 was 17.6 µM (active) on Fatty acid synthase [7] and 32.9 µM (inactive) at Fatty acid synthase [8].
